This note sets out measurements from US9963462B2 (priority 2015, dated 2018).

The target in the assay is SNAP-hSPR (sepiapterin reductase, SPR) (Homo sapiens, UniProt P35270). As to the kind of experiment: biochemical. The format is binding. Particulars: terbium labelled SNAP-hSPR / SSZ labelled SNAP-EGFP; read-out: hTR-FRET IC50.
Sequence of SNAP-hSPR (sepiapterin reductase, SPR) (P35270 whole entry): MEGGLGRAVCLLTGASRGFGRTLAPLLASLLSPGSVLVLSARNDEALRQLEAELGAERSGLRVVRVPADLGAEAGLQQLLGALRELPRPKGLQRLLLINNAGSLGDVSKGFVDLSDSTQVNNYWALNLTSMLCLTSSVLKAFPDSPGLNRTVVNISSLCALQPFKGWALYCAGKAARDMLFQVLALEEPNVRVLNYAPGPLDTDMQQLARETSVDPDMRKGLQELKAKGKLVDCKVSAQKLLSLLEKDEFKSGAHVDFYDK

Turning to `Cc1cc(=O)[nH]c(-c2cnn(CCC(=O)N3CCc4ccccc4C3)c2)n1` (single isomer, unassigned) [Q-0291, 6-methyl-2-{1-[3-oxo-3-(1,2,3,4-tetrahydroisoquinolin-2-yl)propyl]-1H-pyrazol-4-yl}-3,4-dihydropyrimidin-4-one], the IC50 (in general, the concentration at which inhibition is half-maximal) was found to be 2700 nM. Take `Cc1cc(-c2cnn(CCC(=O)N3CCc4ccccc4C3)c2)[nH]c(=O)n1` (single isomer, unassigned) [Q-0292, 4-methyl-6-{1-[3-oxo-3-(1,2,3,4-tetrahydroisoquinolin-2-yl)propyl]-1H-pyrazol-4-yl}-1,2-dihydropyrimidin-2-one]: the IC50 was determined as 40000 nM.

For `Cc1nc(-n2ncc(C(=O)N3c4ccccc4C[C@@H]3C)c2C)[nH]c(=O)c1C` (single isomer, unassigned) [Q-0457], the IC50 worked out at 100 nM. Regarding `Cc1cc(=O)[nH]c(-n2nc(C)c(CCC(=O)N3CCCCC3C)c2C)n1` (stereo not shown) [Q-0002], the IC50 worked out at 30 nM. Turning to `COc1ccccc1NC(=O)c1cnn(-c2nc(C)cc(=O)[nH]2)c1C` [Q-0004], the IC50 is 70 nM. As for `Cc1cc(=O)[nH]c(-n2ncc(C(=O)NCCc3ccc(F)cc3)c2C)n1` [Q-0007], the IC50 was 100 nM. The same measure for `Cc1cc(=O)[nH]c(-c2cnn(CCC(=O)N3CCCC3)c2)n1` [Q-0283, 6-methyl-2-{1-[3-oxo-3-(pyrrolidin-1-yl)propyl]-1H-pyrazol-4-yl}-3,4-dihydropyrimidin-4-one]: 1500 nM; for `Cc1cc(=O)[nH]c(-c2c(C)nn(CCC(=O)N3CCc4ccccc4C3)c2C)n1` [Q-0284]: 2900 nM; for `Cc1cc(-c2c(C)nn(CCC(=O)N3CCc4ccccc4C3)c2C)[nH]c(=O)n1` [Q-0285, 4-{3,5-dimethyl-1-[3-oxo-3-(1,2,3,4-tetrahydroisoquinolin-2-yl)propyl]-1H-pyrazol-4-yl}-6-methyl-1,2-dihydropyrimidin-2-one]: 40000 nM. The same measure for `Cc1cc(=O)[nH]c(-n2ncc(C(=O)N3CCc4ccc(C#N)cc4C3)c2C)n1` [Q-0286]: 10 nM. As for `Cc1cc(=O)[nH]c(-n2ncc(C(=O)O)c2C)n1` [Q-0290], the IC50 came out at 2000 nM. The same measure for `Cc1cc(=O)[nH]c(-n2nc(C)c(CC(=O)N3CCCC3)c2C)n1` [Q-0301]: 200 nM.

On to `Cc1cc(=O)[nH]c(-c2c(C)nn(CCC(=O)N3CCCC3)c2C)n1` [Q-0306], for which the IC50 is 25000 nM. The same measure for `CNC(=O)c1cnn(-c2nc(C)cc(=O)[nH]2)c1C` [Q-0316]: 300 nM; for `Cc1c(C(=O)N2CCOCC2)cnn1-c1nc2ccccc2c(=O)[nH]1` [Q-0320]: 1300 nM; for `Cc1c(C(=O)NC2CCCC2)cnn1-c1nc2ccccc2c(=O)[nH]1` [Q-0321]: 900 nM. Consider `Cc1cc(=O)[nH]c(-n2ncc(C(=O)N3CCC4(CCN(C)C4)C3)c2C)n1` (stereo not shown) [Q-0322], for which the IC50 was found to be 200 nM. On to `Cc1c(C(=O)N2CCc3ccccc3C2)cnn1-c1nc2cc(Cl)sc2c(=O)[nH]1` [Q-0394], for which the IC50 amounted to 1500 nM. The same measure for `Cc1cc2nc(-n3ncc(C(=O)N4CCc5ccccc5C4)c3C)[nH]c(=O)c2s1` [Q-0407]: 1700 nM; for `Cc1cc2c(=O)[nH]c(-n3ncc(C(=O)N4CCC(C(F)(F)F)CC4)c3C)nc2s1` [Q-0413]: 2200 nM. For `CCC1Cc2ccccc2N1C(=O)c1cnn(-c2nc(C)cc(=O)[nH]2)c1C` (stereo not shown) [Q-0420], the IC50 is 7 nM. As for `Cc1nc(-n2ncc(C(=O)N3CCC(C(F)(F)F)CC3)c2C)cc(=O)[nH]1` [Q-0436], the IC50 is 4600 nM.

For the molecule `Cc1nc(-n2ccc(C(=O)N3CCC(C(F)(F)F)CC3)n2)cc(=O)[nH]1` [Q-0437, 2-methyl-6-{3-[4-(trifluoromethyl)piperidine-1-carbonyl]-1H-pyrazol-1-yl}-3,4-dihydropyrimidin-4-one], the IC50 worked out at 5000 nM. The same measure for `Cc1c(C(=O)N2CCC(C(F)(F)F)CC2)cnn1-c1nc2ccnn2c(=O)[nH]1` [Q-0447]: 400 nM; for `Cc1c(C(=O)N2CCC(C(F)(F)F)CC2)cnn1-c1nc2nc[nH]c2c(=O)[nH]1` [Q-0448]: 1500 nM; for `O=C(c1cnn(-c2cc3nccn3c(=O)[nH]2)c1)N1CCC(C(F)(F)F)CC1` [Q-0452]: 800 nM. The same measure for `Cc1cc(-n2ncc(C(=O)N3CCC(C(F)(F)F)CC3)c2C)[nH]c(=O)n1` [Q-0454]: 300 nM; for `Cc1cc(=O)n(C)c(-n2ncc(C(=O)N3CCc4ccccc4C3)c2C)n1` [Q-0455]: 16000 nM; for `Cc1c(C(N2CCC(C(F)(F)F)CC2)C(F)(F)F)cnn1-c1nc2c(c(=O)[nH]1)CCC2` (stereo not shown) [Q-0503, 2-(5-methyl-4-{2,2,2-trifluoro-1-[4-(trifluoromethyl)piperidin-1-yl]ethyl}-1H-pyrazol-1-yl)-3H,4H,5H,6H,7H-cyclopenta[d]pyrimidin-4-one]: 4000 nM. For `O=c1[nH]c(-c2cc(Br)ccn2)nc2ccsc12` [Q-0540], the IC50 is 300 nM. As for `Cc1c(C(=O)O)cnn1-c1nc2ccsc2c(=O)[nH]1` [Q-0541], the IC50 turned out to be 200 nM.

For the molecule `Cc1c(C(=O)O)cnn1-c1nc2sccc2c(=O)[nH]1` [Q-0542], the IC50 is 100 nM. `O=C(O)c1cnn(-c2nc3c(c(=O)[nH]2)CCC3)c1C1CC1` [Q-0544]: the IC50 was 30 nM. The same measure for `Cc1c(C(=O)N2CCC(c3nc(C(N)=O)cs3)CC2)cnn1-c1nn2cccc2c(=O)[nH]1` [Q-1090]: 1 nM; for `Cc1c(C(=O)N2CCN(c3nnc(-c4cccnc4)o3)CC2)cnn1-c1nn2cccc2c(=O)[nH]1` [Q-1150]: 1 nM. Regarding `Cc1c(C(=O)N2CCNCC2)cnn1-c1nn2cccc2c(=O)[nH]1` [Q-1251], the IC50 is 50 nM. Consider `Cc1c(C(=O)N2CCN(CC(F)(F)F)CC2)cnn1-c1nc2c(ccn2C)c(=O)[nH]1` [Q-1266], for which the IC50 came to 200 nM. As for `CCn1ccc2c(=O)[nH]c(-n3ncc(C(=O)N4CCN(CC(F)(F)F)CC4)c3C)nc21` [Q-1292], the IC50 came out at 5000 nM. Regarding `Cc1c(C(=O)N2CC3(C2)CC(F)(F)C3)cnn1-c1nc2[nH]ncc2c(=O)[nH]1` [Q-1295], the IC50 was found to be 2400 nM. As for `Cc1c(C(=O)N2CCN(CC(F)(F)F)CC2)cnn1-c1nc2[nH]ncc2c(=O)[nH]1` [Q-1296], the IC50 was determined as 600 nM. `Cc1c(C(=O)N2CC3(C2)CC(F)(F)C3)cnn1-c1nc2c(ccn2C)c(=O)[nH]1` [Q-1306]: the IC50 amounted to 500 nM.

Turning to `CCn1ccc2c(=O)[nH]c(-n3ncc(C(=O)N4CC(N5CCC(F)(F)C5)C4)c3C)nc21` [Q-1311], the IC50 amounted to 5000 nM. As to `CCn1ccc2c(=O)[nH]c(-n3ncc(C(=O)N4CC5(C4)CC(F)(F)C5)c3C)nc21` [Q-1313], the IC50 is 5000 nM. On to `Cc1c(C(=O)N2CCC2c2ccnc(F)c2)cnn1-c1nn2cccc2c(=O)[nH]1` (stereo not shown) [Q-1320], for which the IC50 was 20 nM. Consider `Cc1c(C(=O)N2CC(N3CCC(F)(F)C3)C2)cnn1-c1nc2c(ccn2C)c(=O)[nH]1` [Q-1322], for which the IC50 was found to be 400 nM. Consider `CCn1ccc2c(=O)[nH]c(-n3ncc(C(=O)N4CC5CC(C4)N5CC(F)(F)F)c3C)nc21` [Q-1341], for which the IC50 was found to be 5000 nM. `Cc1c(C(=O)N2CC(N3CCC(F)(F)C3)C2)cnn1-c1nc2c(c(=O)[nH]1)COC2` [Q-1343]: the IC50 worked out at 70 nM. For the molecule `Cc1c(C(=O)N2CC(N3CCC(F)(F)C3)C2)cnn1-c1nc2[nH]ncc2c(=O)[nH]1` [Q-1345], the IC50 is 1400 nM. On to `Cc1c(C(=O)N2CC3(C2)CC(F)(F)C3)cnn1-c1nc2c(c(=O)[nH]1)COC2` [Q-1346], for which the IC50 worked out at 50 nM.

As for `Cc1c(C(=O)N2CC3CC(C2)N3CC(F)(F)F)cnn1-c1nc2c(ccn2C)c(=O)[nH]1` [Q-1365], the IC50 was determined as 1000 nM. The same measure for `Cc1c(C(=O)N2CC3CC(C2)N3CC(F)(F)F)cnn1-c1nc2c(c(=O)[nH]1)COC2` [Q-1483]: 30 nM; for `Cc1c(C(=O)N2CC3CC(C2)N3CC(F)(F)F)cnn1-c1nc2[nH]ncc2c(=O)[nH]1` [Q-1560]: 800 nM.

In the case of `Cc1c(C(=O)N2CCN(CC(F)(F)F)CC2)cnn1-c1nc2c(c(=O)[nH]1)CC(C)(C)C2` [Q-1563], the IC50 came out at 5000 nM. Take `Cc1c(C(=O)N2CC(N3CCC(F)(F)C3)C2)cnn1-c1nc2c(c(=O)[nH]1)CC(C)(C)C2` [Q-1564, 2-(4-(3-(3,3-difluoropyrrolidin-1-yl)azetidine-1-carbonyl)-5-methyl-1H-pyrazol-1-yl)-6,6-dimethyl-6,7-dihydro-3H-cyclopenta[d]pyrimidin-4(5H)-one]: the IC50 is 5000 nM.

For the molecule `Cc1c(C(=O)N2CC3(C2)CC(F)(F)C3)cnn1-c1nc2c(c(=O)[nH]1)CC(C)(C)C2` [Q-1565], the IC50 is 5000 nM.

As to `Cc1c(C(=O)O)cnn1-c1nc2c(c(=O)[nH]1)CC(C)(C)C2` [Q-1597], the IC50 was found to be 5000 nM. Regarding `COC(=O)c1cnn(-c2nc3c(c(=O)[nH]2)CC(C)(C)C3)c1C` [Q-1641], the IC50 was determined as 5000 nM. Consider `Cc1c(C(=O)N2CCN(S(=O)(=O)c3ccc(OC(F)(F)F)cc3)CC2)cnn1-c1nn2cccc2c(=O)[nH]1` [Q-1798, 2-(5-methyl-4-(4-(4-(trifluoromethoxy)phenylsulfonyl)piperazine-1-carbonyl)-1H-pyrazol-1-yl)pyrrolo[1,2-f][1,2,4]triazin-4(3H)-one], for which the IC50 turned out to be 2 nM. Regarding `Cc1c(C(=O)N2CCN(S(=O)(=O)c3ccc(C(C)(C)C)cc3)CC2)cnn1-c1nn2cccc2c(=O)[nH]1` [Q-1800], the IC50 was found to be 2 nM. As to `Cc1c(C(=O)N2CCN(S(=O)(=O)c3ccc(F)c(Cl)c3)CC2)cnn1-c1nn2cccc2c(=O)[nH]1` [Q-1801], the IC50 stood at 2 nM. In the case of `COc1ccc(S(=O)(=O)N2CCN(C(=O)c3cnn(-c4nn5cccc5c(=O)[nH]4)c3C)CC2)cc1` [Q-1804], the IC50 is 2 nM. With `Cc1c(C(=O)N2CCN(S(=O)(=O)c3cc(Cl)c(Cl)s3)CC2)cnn1-c1nn2cccc2c(=O)[nH]1` [Q-1814], the IC50 was found to be 2 nM.

For `Cc1c(C(=O)N2CCN(S(=O)(=O)c3cccc4c(N(C)C)cccc34)CC2)cnn1-c1nn2cccc2c(=O)[nH]1` [Q-1815], the IC50 amounted to 2 nM. The same measure for `Cc1c(C(=O)N2CCN(S(=O)(=O)c3cc(Cl)ccc3Cl)CC2)cnn1-c1nn2cccc2c(=O)[nH]1` [Q-1825]: 2 nM.
